Counter-ions that a name gives are not always drawn.
Test system: ATGL-KO iPSCs
Experiment: High throughput iPSC chemical screening, Oil Red O (ORO) lipid accumulation; note: test concentration or dose not given here
Format: cell-based, mouse
Conditions: normalized ORO level vs DMSO-treated cells; compound present during 7 days differentiation, 96-well; negative = decrease in lipid accumulation

SMILES | Z-score
CN(C)CCCO[C@@H]1[C@H]2OC(C)(C)O[C@H]2O[C@@H]1[C@H](O)CO [Amiprilose hydrochloride] | −0.6893
CC(C[N+](C)(C)C)OC(N)=O (stereo not drawn) [Bethanechol chloride] | −0.3853
Nc1ccc(/N=N/c2ccccc2)c(N)n1 [Phenazopyridine hydrochloride] | −0.2483
CCN1C[C@]2(COC)[C@H](O)C[C@H](OC)[C@@]34[C@@H]5C[C@@]6(O)[C@H](OC(=O)c7ccccc7)[C@@H]5[C@@](OC(C)=O)([C@@H]([C@H](OC)[C@H]23)[C@@H]14)[C@@H](O)[C@@H]6OC [Aconitine] | 0.7907
Nc1ccn([C@H]2CC[C@@H](CO)O2)c(=O)n1 [Zalcitabine] | 2.323
Cc1cc(=O)oc2cc(O)ccc12 [Hymecromone] | −0.7731
C=C(C)[C@@H]1[C@H]2OC(=O)[C@@H]1[C@]1(O)C[C@H]3O[C@]34C(=O)O[C@H]2[C@]14C [Picrotoxinin] | −0.1703
Cc1[nH]ccc2c1[nH]c1cc(=O)ccc12 [Harmol hydrochloride monohydrate] | −0.0757
COc1ccc(OC)c(C(O)CNC(=O)CN)c1 (stereo not drawn) [Midodrine hydrochloride] | −0.5001
Cc1cccc(Nc2ccccc2C(=O)O)c1C [Mefenamic acid] | −0.2407
Cn1cnc([N+](=O)[O-])c1Sc1ncnc2nc[nH]c12 [Azathioprine] | 17.2224
C[C@@H]1O[C@@H](O[C@H]2[C@H](Oc3cc(O)c4c(c3)O[C@H](c3ccc(O)cc3)CC4=O)O[C@H](CO)[C@@H](O)[C@@H]2O)[C@H](O)[C@H](O)[C@H]1O [Naringin hydrate] | 2.68
O=C(c1ccccc1)c1ccc2n1CCC2C(=O)O (stereo not drawn) [Ketorolac tromethamine] | −0.8373
C(#CCN1CCCC1)CN1CCCC1.Cl.Cl [Tremorine dihydrochloride] | 0.3583
CC(=O)OCC(=O)[C@@]1(O)CC[C@H]2[C@@H]3CCC4=CC(=O)CC[C@]4(C)[C@@]3(F)[C@@H](O)C[C@@]21C [Fludrocortisone acetate] | −0.9911
COc1cc([S+](C)[O-])ccc1-c1nc2ncccc2[nH]1 (stereo not drawn) [Sulmazole] | 0.4097
CC(C)(Oc1ccc(Cl)cc1)C(=O)O [Clofibric acid] | 2.297
COc1cc2c(cc1O)C[C@H]1c3c(cc(O)c(OC)c3-2)CCN1C [Boldine] | −0.6389
COc1ccc2c(OC)c3ccoc3nc2c1OC [Skimmianine] | −1.2252
NCC[C@H](O)C(=O)N[C@@H]1C[C@H](N)[C@@H](O[C@H]2O[C@H](CN)[C@@H](O)[C@H](O)[C@H]2O)[C@H](O)[C@H]1O[C@H]1O[C@H](CO)[C@@H](O)[C@H](N)[C@H]1O [Amikacin hydrate] | 2.444
CCC1(C)CC(=O)NC1=O (stereo not drawn) [Ethosuximide] | 1.076
COc1cc2ccc(=O)oc2cc1O [Scopoletin] | 0.6027
COc1c(O[C@@H]2O[C@H](CO)[C@@H](O)[C@H](O)[C@H]2O)cc2c(c1OC)-c1ccc(SC)c(=O)cc1[C@@H](NC(C)=O)CC2 [Thiocolchicoside] | 11.5611
CC(=O)Nc1ccc(O)cc1 [Acetaminophen] | −0.6512
O=C(O)CCc1nc(-c2ccccc2)c(-c2ccccc2)o1 [Oxaprozin] | −1.009
COc1ccc2c(c1)[nH]c1c(C)nccc12.Cl [Harmine hydrochloride] | 0.3085
CCOc1ccc(NC(C)=O)cc1 [Phenacetin] | 0.5
CC(Cc1ccc(O)cc1)NCC(O)c1cc(O)cc(O)c1 (stereo not drawn) [Fenoterol hydrobromide] | −0.7445
CCOC(=O)Nc1ccc2c(c1)N(C(=O)CCN1CCOCC1)c1ccccc1S2 [Moricizine hydrochloride] | −0.1525
COc1cc([C@@H]2c3cc4c(cc3[C@H](O)[C@H]3COC(=O)[C@H]23)OCO4)cc(OC)c1OC [Podophyllotoxin] | 46.4771

— US9393221B2, “Methods and compounds for reducing intracellular lipid storage” (THE GENERAL HOSPITAL CORPORATION, priority 2011, dated 2016)
